According to US7354754B2, “Microorganism sensitive to lysozyme” (National Institute of Advanced Industrial Science and …, priority 2002, dated 2008):

Columns and labels:
Assay type in all cases: cell-based
[1] = system: Rhodococcus erythropolis strain L-65; assay: Minimum growth inhibition concentration on LB agar medium, strain L-65; settings: 30° C., 2 days
Excerpt: (§1) A microorganism of the genus Rhodococcus according to the present invention is a mutant microorganism of the genus Rhodococcus, which has a higher sensitivity to lysozyme than a wild-type microorganism of the genus Rhodococcus. The microorganism of the genus Rhodococcus is not limited to a specific species and includes Rhodococcus erythropolis, Rhodococcus fascians, and Rhodococcus opacus. The wild-type microorganism of the genus Rhodococcus refers to a microorganism belonging to the genus Rhodococcus and having no genetic mutation, for example, Rhodococcus erythropolis strain JCM 3201. More specifically, the microorganism of the genus Rhodococcus according to the present invention having a higher sensitivity to lysozyme is a mutant derived from a wild-type microorganism of the genus Rhodococcus as a parent strain, and having an increased sensitivity to lysozyme compared to the parent strain. The phrase “having an increased sensitivity to lysozyme” means that cell lysis may occur at a low lysozyme concentration. […] Alternatively, the degree of sensitivity to lysozyme can be determined by adding lysozyme to a predetermined concentration of a microorganism of the genus Rhodococcus, and monitoring a change in absorbence while culturing. […]

[2] = system: Rhodococcus erythropolis strain L-88; assay: Minimum growth inhibition concentration on LB agar medium, strain L-88; settings: 30° C., 2 days
Excerpt: as §1

[3] = system: Rhodococcus erythropolis strain JCM 3201; assay: Minimum growth inhibition concentration on LB agar medium, strain JCM 3201; settings: strain JCM 3201 (wild type), 30° C., 2 days
Excerpt: as §1

[4] = system: Rhodococcus erythropolis wild type and mutant strain; assay: Comparison of wild type and mutant strain for sensitivity to antibiotics; settings: determined similarly to the ampicillin test
Procedure: The sensitivity of Rhodococcus erythropolis strain L-65 and L-88 to ampicillin was determined in the same manner as in Example 1. To explain more specifically, the bacterial cells of each strain were inoculated in LB medium and cultured with shaking at 30° C. A part of the culture solution was taken in the middle of logarithmic growth period and diluted with fresh LB medium so as to contain 1×10^5, 1×10^4, 1×10^3, 1×10^2, and […] cells in 10 μl of the LB medium. The diluted culture solutions thus prepared were dropped onto each of LB agar mediums containing lysozyme in concentrations of 15, 10, 1, and 0.1 μg/ml. After the mediums were cultured at 30° C. for 2 days and the presence or absence of bacterial cells grown on the mediums was checked. In this manner, the minimum growth inhibition concentration was determined (Table 2).

[5] = system: Rhodococcus erythropolis strain L-65; assay: Turbidity change of culture solution by addition of lysozyme, strain L-65; settings: lysozyme 12.5 μg/ml added at OD600 about 0.2, LB medium, 30° C.
Procedure: (§2) To 100 ml of LB medium, Rhodococcus erythropolis strain L-65 was inoculated and cultured with shaking at 30° C. The absorbence (OD600) of the culture solution was measured at an absorption wavelength of 600 nm every hour from the beginning of the logarithmic growth period. When OD600 reached about 0.2, the volume of the culture solution was divided into halves. To one of them, lysozyme was added to a final concentration of 12.5 μg/ml. No lysozyme was added to the other. While both solutions were further cultured continuously, the absorbence was measured. The growth profiles of Rhodococcus erythropolis strain L-65 culture solutions with Lysozyme (12.5 μg/ml) and without lysozyme were shown by absorbence at 600 nm. When OD600 reached about 0.2, lysozyme was added (Indicated by the arrow in the figure). […] This is considered because bacterial cell lysis was caused by lysozyme.

[6] = system: Rhodococcus erythropolis strain L-88; assay: Turbidity change of culture solution by addition of lysozyme, strain L-88; settings: lysozyme 12.5 μg/ml added at OD600 about 0.2, LB medium, 30° C.
Procedure: as §2
The same operation as in Example 2 was performed by use of Rhodococcus erythropolis strain L-88. The growth profiles of culture solutions of Rhodococcus erythropolis strain L-88 with lysozyme (12.5 μg/ml) and without lysozyme were shown by absorbence at 600 nm. When OD600 reached about 0.2, lysozyme was added (Indicated by the arrow in the figure). […] This is considered because bacterial cell lysis was caused by lysozyme.

[7] = system: Rhodococcus erythropolis strain JCM 3201; assay: Turbidity change of culture solution by addition of lysozyme, strain JCM 3201; settings: lysozyme 12.5 μg/ml added at OD600 about 0.2, LB medium, 30° C.
Procedure: as §2
The same operation as in Example 2 was performed by use of Rhodococcus erythropolis strain JCM 3201. The growth profiles of culture solutions of Rhodococcus erythropolis strain JCM 3201 with lysozyme (12.5 μg/ml) and without lysozyme were shown by absorbence at 600 nm. When OD600 reached about 0.2, lysozyme was added (Indicated by the arrow in the figure).

[8] = system: Rhodococcus erythropolis strain L-65; assay: Cell lysis with lysozyme for extraction of recombinant PIP protein, strain L-65; settings: lysozyme 1 mg/ml, 37° C., one hour, nondenaturation buffer
Excerpt: A plasmid (pHN170, Nakashima and Tamura: the full length sequence is represented by SEQ ID No: 2) was constructed such that it could self-replicate in a bacterial cell of Rhodococcus erythropolis and could be induced by thiostreptone to express a proline iminopeptidase (hereinafter referred to as “PIP”) protein (T. Tamura et al., FEBS Lett. 398, 101-105 (1996)) having a 6× histidine tag at the C terminal. This plasmid was introduced into Rhodococcus erythropolis strain L-65 by an electroporation method. Transformants were screened on LB agar medium containing tetracycline (20 μg/ml). The transformants were inoculated on 4 ml of LB medium containing tetracycline (8 μg/ml) and cultured with shaking at 30° C. until the absorbence at an absorption wavelength of 600 nm reached 0.8. The entire culture solution was added to 40 ml of LB medium containing thiostreptone (1 μg/ml) and cultured with rotation in a vaned flask for 16 hours. After PIP protein was induced to express, bacterial cells were centrifugally collected at 1,500×g for 15 minutes. […] As a result, a clear band was detected near the molecular weight (34.3 KDa), which was predicted from the amino acid sequence of the 6× histidine-fused PIP protein (FIG. 5). […]

[9] = system: Rhodococcus erythropolis strain L-88; assay: Cell lysis with lysozyme for extraction of recombinant PIP protein, strain L-88; settings: lysozyme 1 mg/ml, 37° C., one hour, nondenaturation buffer
[10] = system: Rhodococcus erythropolis strain JCM 3201; assay: Cell lysis with lysozyme for extraction of recombinant PIP protein, strain JCM 3201; settings: lysozyme 1 mg/ml, 37° C., one hour

CC1(C)S[C@@H]2[C@H](NC(=O)[C@H](N)c3ccccc3)C(=O)N2[C@H]1C(=O)O [ampicillin, reference compound]
Minimum growth-inhibiting ampicillin concentration [1]: 1 µg/mL | Minimum growth-inhibiting ampicillin concentration [2]: 1 µg/mL | Minimum growth-inhibiting ampicillin concentration [3]: 15 µg/mL

O=C(N[C@H](CO)[C@H](O)c1ccc([N+](=O)[O-])cc1)C(Cl)Cl [chloramphenicol]
Difference in sensitivity between wild type and mutant strain [4]: no significant difference was observed

thiostreptone
Difference in sensitivity between wild type and mutant strain [4]: no significant difference was observed

lysozyme: lysozyme derived from egg-white (manufactured by Sigma), cell-wall lytic enzyme
Minimum growth-inhibiting lysozyme concentration [2]: 12.5 µg/mL | Minimum growth-inhibiting lysozyme concentration [3]: >400 µg/mL | Change of absorbence (OD600) of culture solution after addition of lysozyme [5]: a sharp decrease in absorbence was observed | Change of absorbence (OD600) of culture solution after addition of lysozyme [6]: a sharp decrease in absorbence was observed | Change of absorbence (OD600) of culture solution after addition of lysozyme [7]: the same tendency of growth was observed | Cell lysis by lysozyme treatment (PIP band in supernatant, SDS polyacrylamide gel electrophoresis) [8]: Cells were lysed completely | Cell lysis by lysozyme treatment (PIP band in supernatant, SDS polyacrylamide gel electrophoresis) [9]: The same phenomenon as in the case of bacterial stain L-65 is considered | Cell lysis by lysozyme treatment (PIP band in supernatant, SDS polyacrylamide gel electrophoresis) ([10]; strain JCM 3201, nondenaturation buffer, no ampicillin): cell lysis rarely takes place | Cell lysis by lysozyme treatment (PIP band in supernatant, SDS polyacrylamide gel electrophoresis) ([10]; strain JCM 3201 treated with ampicillin 600 μg/ml for 2 hours before cell collection): cell lysis takes place even in nondenaturation conditions
